Reference: paper PMC6199744, “Development of Chemical Proteomics for the Folateome and Analysis of the Kinetoplastid Folateome” (ACS Infectious Diseases, 2018)
Where two headings read alike, the source gives them in different places.

Legend:
Type in all cases: binding
[1] = molecular target: T1, HeLa cell extract proteins (Homo sapiens, UniProt P05166)
T1 construct: endogenous in cells; host or cells: HeLa cell extract
T1 sequence (P05166 29-539): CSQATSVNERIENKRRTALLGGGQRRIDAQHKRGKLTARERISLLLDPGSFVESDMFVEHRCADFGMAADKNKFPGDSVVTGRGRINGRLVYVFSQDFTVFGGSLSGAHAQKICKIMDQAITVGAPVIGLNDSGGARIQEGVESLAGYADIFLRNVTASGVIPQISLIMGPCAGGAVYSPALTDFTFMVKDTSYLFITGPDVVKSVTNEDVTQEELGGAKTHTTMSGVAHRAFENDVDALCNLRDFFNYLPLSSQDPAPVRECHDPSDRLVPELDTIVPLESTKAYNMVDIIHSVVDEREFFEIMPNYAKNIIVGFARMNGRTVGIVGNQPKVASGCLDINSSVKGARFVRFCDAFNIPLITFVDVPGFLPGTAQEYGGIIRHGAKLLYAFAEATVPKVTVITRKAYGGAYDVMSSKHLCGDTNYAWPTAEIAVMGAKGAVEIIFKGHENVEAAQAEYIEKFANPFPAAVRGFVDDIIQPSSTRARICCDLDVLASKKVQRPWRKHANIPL

[2] = molecular target: T2, HeLa cell extract proteins (Homo sapiens, UniProt P08559)
T2 construct: endogenous in cells; host or cells: HeLa cell extract
T2 sequence (P08559 30-390): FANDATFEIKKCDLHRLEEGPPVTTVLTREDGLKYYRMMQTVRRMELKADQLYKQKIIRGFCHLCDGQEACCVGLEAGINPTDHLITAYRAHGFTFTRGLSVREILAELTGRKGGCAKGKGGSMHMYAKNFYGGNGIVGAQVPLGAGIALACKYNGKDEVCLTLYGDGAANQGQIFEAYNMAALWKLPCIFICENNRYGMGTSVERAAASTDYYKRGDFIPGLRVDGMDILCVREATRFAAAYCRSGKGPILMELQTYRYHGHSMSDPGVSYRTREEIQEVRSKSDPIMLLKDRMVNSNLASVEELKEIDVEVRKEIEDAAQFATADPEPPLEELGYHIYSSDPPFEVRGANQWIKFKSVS

[3] = molecular target: T3, HeLa cell extract proteins (Homo sapiens, UniProt P35680)
T3 construct: endogenous in cells; host or cells: HeLa cell extract
T3 sequence (P35680 whole entry): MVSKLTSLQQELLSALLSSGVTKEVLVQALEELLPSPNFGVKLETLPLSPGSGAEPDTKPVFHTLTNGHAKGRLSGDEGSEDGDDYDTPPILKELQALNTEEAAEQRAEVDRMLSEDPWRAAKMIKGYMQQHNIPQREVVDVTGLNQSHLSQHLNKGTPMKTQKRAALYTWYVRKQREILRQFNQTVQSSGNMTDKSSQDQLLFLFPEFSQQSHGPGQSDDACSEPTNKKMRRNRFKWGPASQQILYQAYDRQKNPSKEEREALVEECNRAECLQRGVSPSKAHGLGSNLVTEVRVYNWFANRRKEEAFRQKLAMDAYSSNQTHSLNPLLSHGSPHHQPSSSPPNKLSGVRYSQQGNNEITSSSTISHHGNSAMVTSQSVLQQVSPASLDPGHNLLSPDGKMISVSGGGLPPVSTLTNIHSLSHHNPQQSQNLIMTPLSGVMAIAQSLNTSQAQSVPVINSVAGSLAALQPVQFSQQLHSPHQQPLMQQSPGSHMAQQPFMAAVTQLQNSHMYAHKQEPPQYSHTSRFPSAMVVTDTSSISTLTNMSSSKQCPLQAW

[4] = molecular target: T4, HeLa cell extract proteins (Homo sapiens, UniProt P41252)
T4 construct: endogenous in cells; host or cells: HeLa cell extract
T4 sequence (P41252 1-1262): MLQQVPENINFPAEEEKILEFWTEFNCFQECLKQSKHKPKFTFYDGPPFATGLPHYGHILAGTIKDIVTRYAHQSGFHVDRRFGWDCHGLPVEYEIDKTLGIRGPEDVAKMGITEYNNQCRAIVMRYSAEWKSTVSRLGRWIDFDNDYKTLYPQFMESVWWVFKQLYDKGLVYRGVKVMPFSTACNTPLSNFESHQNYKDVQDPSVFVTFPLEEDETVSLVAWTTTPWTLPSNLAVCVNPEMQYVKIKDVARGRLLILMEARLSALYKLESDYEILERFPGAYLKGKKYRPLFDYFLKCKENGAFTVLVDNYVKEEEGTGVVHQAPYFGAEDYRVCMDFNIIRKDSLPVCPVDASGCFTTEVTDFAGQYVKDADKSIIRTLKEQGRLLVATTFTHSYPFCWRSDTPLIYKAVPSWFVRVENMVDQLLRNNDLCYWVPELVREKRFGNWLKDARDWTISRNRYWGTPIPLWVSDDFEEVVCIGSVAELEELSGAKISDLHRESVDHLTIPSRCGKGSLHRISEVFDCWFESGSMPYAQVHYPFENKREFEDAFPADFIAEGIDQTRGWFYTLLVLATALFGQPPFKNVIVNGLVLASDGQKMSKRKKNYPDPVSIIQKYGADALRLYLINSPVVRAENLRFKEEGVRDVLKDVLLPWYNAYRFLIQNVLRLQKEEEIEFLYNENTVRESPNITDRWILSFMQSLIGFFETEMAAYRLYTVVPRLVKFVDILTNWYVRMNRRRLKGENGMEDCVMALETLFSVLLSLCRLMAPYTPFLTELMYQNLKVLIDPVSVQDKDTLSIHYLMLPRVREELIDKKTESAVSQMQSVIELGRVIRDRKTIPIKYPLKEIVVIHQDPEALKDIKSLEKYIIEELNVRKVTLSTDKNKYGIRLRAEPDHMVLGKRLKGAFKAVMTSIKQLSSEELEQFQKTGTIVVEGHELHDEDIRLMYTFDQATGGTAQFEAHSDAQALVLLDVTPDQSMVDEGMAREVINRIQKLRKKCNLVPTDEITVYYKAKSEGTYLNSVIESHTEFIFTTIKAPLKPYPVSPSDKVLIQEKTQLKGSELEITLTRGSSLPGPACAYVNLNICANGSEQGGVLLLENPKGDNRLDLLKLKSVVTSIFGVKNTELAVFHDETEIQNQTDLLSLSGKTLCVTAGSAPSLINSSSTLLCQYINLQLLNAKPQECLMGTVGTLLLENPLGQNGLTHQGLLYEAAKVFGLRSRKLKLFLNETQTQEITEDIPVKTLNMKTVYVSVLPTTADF

[5] = molecular target: T5, HeLa cell extract proteins (Homo sapiens, UniProt Q16891)
T5 construct: endogenous in cells; host or cells: HeLa cell extract
T5 sequence (Q16891 34-758): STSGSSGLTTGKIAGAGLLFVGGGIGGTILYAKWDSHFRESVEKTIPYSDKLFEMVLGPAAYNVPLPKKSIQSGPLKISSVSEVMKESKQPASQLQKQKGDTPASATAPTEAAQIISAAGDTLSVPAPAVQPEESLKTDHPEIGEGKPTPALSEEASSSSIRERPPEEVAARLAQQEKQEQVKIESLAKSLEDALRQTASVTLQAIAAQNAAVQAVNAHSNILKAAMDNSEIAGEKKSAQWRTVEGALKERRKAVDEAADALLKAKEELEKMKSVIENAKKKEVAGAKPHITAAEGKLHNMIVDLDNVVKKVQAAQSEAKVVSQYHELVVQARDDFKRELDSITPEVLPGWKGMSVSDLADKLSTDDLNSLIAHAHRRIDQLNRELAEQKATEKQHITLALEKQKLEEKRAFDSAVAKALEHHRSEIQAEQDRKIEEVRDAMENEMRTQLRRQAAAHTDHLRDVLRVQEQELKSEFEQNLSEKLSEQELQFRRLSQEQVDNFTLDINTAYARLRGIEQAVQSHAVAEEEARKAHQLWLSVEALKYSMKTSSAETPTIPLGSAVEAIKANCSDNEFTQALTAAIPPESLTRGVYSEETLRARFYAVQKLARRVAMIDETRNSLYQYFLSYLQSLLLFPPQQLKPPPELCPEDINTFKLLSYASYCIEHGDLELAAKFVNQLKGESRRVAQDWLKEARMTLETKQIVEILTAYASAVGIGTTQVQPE

Nc1nc2c(c(=O)[nH]1)N(C=O)C(CNc1ccc(C(=O)N[C@@H](CCC(=O)O)C(=O)O)cc1)CN2 (some centres unmarked) [LEU, leucovorin]
fold changes relative to vehicle control ([1]; HeLa, protein PCCB): 0.97 | fold changes relative to vehicle control ([2]; HeLa, captured protein PDHA1): 1.06 | fold changes relative to vehicle control ([3]; HeLa, protein HNF1B): 0.87 | fold changes relative to vehicle control ([4]; HeLa, captured protein IARS): 1.01 | fold changes relative to vehicle control ([5]; HeLa, captured protein IMMT): 0.97

Nc1nc2[nH]cc(CCc3ccc(C(=O)N[C@@H](CCC(=O)O)C(=O)O)cc3)c2c(=O)[nH]1 [PTX, pemetrexed]
fold changes relative to vehicle control [1]: 0.22 | fold changes relative to vehicle control [2]: 1.04 | fold changes relative to vehicle control [3]: 0.82 | fold changes relative to vehicle control [4]: 0.96 | fold changes relative to vehicle control [5]: 1.01

CCCCCCOc1ccc(Cc2cnc(N)nc2N)cc1 [compound 1]
fold changes relative to vehicle control ([1]; captured protein PCCB, HeLa): 0.99 | fold changes relative to vehicle control ([2]; HeLa, protein PDHA1): 1.02 | fold changes relative to vehicle control ([3]; captured protein HNF1B, HeLa): 0.64 | fold changes relative to vehicle control ([4]; HeLa, protein IARS): 1.15 | fold changes relative to vehicle control ([5]; HeLa, protein IMMT): 0.96

CCCCCCOc1cccc(Cc2cnc(N)nc2N)c1 [compound 2]
fold changes relative to vehicle control ([1]; captured protein PCCB, HeLa): 0.92 | fold changes relative to vehicle control ([2]; HeLa, protein PDHA1): 0.4 | fold changes relative to vehicle control ([3]; captured protein HNF1B, HeLa): 1.01 | fold changes relative to vehicle control ([4]; HeLa, protein IARS): 1.22 | fold changes relative to vehicle control ([5]; HeLa, protein IMMT): 1.14

Nc1nc2cccc(-c3ccccc3)c2n1Cc1ccc(Cl)c(Cl)c1 [compound 3]
fold changes relative to vehicle control ([1]; captured protein PCCB, HeLa): 1 | fold changes relative to vehicle control ([2]; HeLa, protein PDHA1): 1.07 | fold changes relative to vehicle control ([3]; captured protein HNF1B, HeLa): 1 | fold changes relative to vehicle control ([4]; HeLa, protein IARS): 1.28 | fold changes relative to vehicle control ([5]; HeLa, protein IMMT): 1.05

NCCOCCOCC(=O)Nc1nc2ncc(CNc3ccc(C(=O)NC(CCC(=O)O)C(=O)O)cc3)nc2c(=O)[nH]1 (centres unmarked) [compound 6]
fold changes relative to vehicle control ([1]; HeLa, protein PCCB): 0.91 | fold changes relative to vehicle control ([2]; HeLa, captured protein PDHA1): 1 | fold changes relative to vehicle control ([3]; HeLa, protein HNF1B): 0.81 | fold changes relative to vehicle control ([4]; HeLa, captured protein IARS): 1.03 | fold changes relative to vehicle control ([5]; HeLa, captured protein IMMT): 1.03

NCCCNc1ccc(C(=O)NC(CCC(=O)O)C(=O)O)cc1 (centres unmarked) [compound 7]
fold changes relative to vehicle control ([1]; HeLa, protein PCCB): 1.17 | fold changes relative to vehicle control ([2]; HeLa, captured protein PDHA1): 0.99 | fold changes relative to vehicle control ([3]; HeLa, protein HNF1B): 1.07 | fold changes relative to vehicle control ([4]; HeLa, captured protein IARS): 1.1 | fold changes relative to vehicle control ([5]; HeLa, captured protein IMMT): 1.09
